# Data taken from PMC5515971, “Utility of spherical human liver microtissues for prediction of clinical drug-induced liver injury” (Archives of Toxicology, 2017).
# Like-named read-outs stand apart in the source and are kept apart here.
# Tests used:
# [1] = cited from earlier work; for DILI category: clinical, from literature and product labels, ref Garside et al. 2014
# [2] = test system: primary human hepatocytes (PHH); assay: Cytotoxicity (cellular ATP, CellTiter-Glo) in 2D plated primary human hepatocytes, 48 h treatment; assay type: cell-based; details: for IC50: read-out: Geomean IC50;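 on all read-outs here: 384-well plates, luminescence read-out, normalized to vehicle wells with 1% DMSO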
# [3] = test system: 3D human liver microtissues (hLiMT); assay: Cytotoxicity (cellular ATP, CellTiter-Glo 2.0) in 3D human liver microtissues, 14 day repeat-dose treatment
# [4] = cited from earlier work
# [5] = ref Chen et al 2016 / Chen et al 2011; cited from earlier work
# [6] = Table 1, ref Garside et al. (2014)
# [7] = clinical DILI severity category, 1-5
# [8] = Hepatocyte, 2D primary human hepatocytes (lot IZT), 48 h treatment, total cellular ATP content
# [9] = Homo sapiens, Hepatocyte, 336 h, read-out: Geomean IC50 [µM]
# [10] = human Cmax total, used for IC50/Cmax
# [11] = human total plasma Cmax, ref literature values
# [12] = 2D primary human hepatocytes (lot IZT), 48 h treatment, total cellular ATP content
# [13] = read-out: Geomean IC50, decrease in total cellular ATP content, hLiMT treated for 14 days, hepatocyte lot IZT (except Dexamethasone) co-cultured with NPCs, n=1 or geometric mean
SMILES,"IC50 [2, 8] [µM]","IC50 [3, 9] [µM]","Cmax [4, 10] [nM]","Cmax [4, 11] [nM]",other results
Cc1onc(-c2c(F)cccc2Cl)c1C(=O)N[C@@H]1C(=O)N2[C@@H]1SC(C)(C)[C@@H]2C(=O)O [Flucloxacillin],4670,12200,66100,66100,"DILI severity category [1, 6]: 2: High clinical DILI concern (N = 23); DILI severity category [1, 7]: 2. High Clinical DILI Concern; DILI category [1]: 2. High Clinical DILI Concern"
CN(CCOc1ccc(CC2SC(=O)NC2=O)cc1)c1ccccn1 (stereo not shown) [Rosiglitazone],> 100,,1000,1040,"FDA DILI Classification DILI severity score [5]: 3; LTKB DILI classification [5]: less DILI concern; DILI severity category [1, 6]: 2: High clinical DILI concern (N = 23); DILI severity category [1, 7]: 2. High Clinical DILI Concern; DILI category [1]: 2. High Clinical DILI Concern"
CCN(CC)CCNC(=O)c1c(C)[nH]c(/C=C2\C(=O)Nc3ccc(F)cc32)c1C [Sunitinib],13.3,~2,,70800,"FDA DILI Classification DILI severity score [5]: 8; LTKB DILI classification [5]: most DILI concern; DILI severity category [1, 6]: 1: Severe clinical DILI (N = 23); DILI severity category [1, 7]: 1. Severe Clinical DILI; DILI category [1]: 1. Severe Clinical DILI"
C#C[C@]1(O)CC[C@H]2[C@@H]3CCC4=Cc5oncc5C[C@]4(C)[C@H]3CC[C@@]21C [Danazol],108,> 100,,207000,
Clc1ccccc1CN1CCc2sccc2C1 [Ticlopidine],,,8100,8070,
NC(=O)OCC(COC(N)=O)c1ccccc1 [Felbamate],> 100,> 100,399000,399000,"FDA DILI Classification DILI severity score [5]: 7; LTKB DILI classification [5]: most DILI concern; DILI severity category [1, 6]: 1: Severe clinical DILI (N = 23); DILI severity category [1, 7]: 1. Severe Clinical DILI; DILI category [1]: 1. Severe Clinical DILI"
C[C@H]1O[C@@H](O[C@H]2[C@@H](O)C[C@H](O[C@H]3[C@@H](O)C[C@H](O[C@H]4CC[C@@]5(C)[C@H](CC[C@@H]6[C@@H]5C[C@@H](O)[C@]5(C)[C@@H](C7=CC(=O)OC7)CC[C@]65O)C4)O[C@@H]3C)O[C@@H]2C)C[C@H](O)[C@@H]1O [Digoxin],,0.33,,,"IC50 ([2]; Homo sapiens, Hepatocyte, 48 h): < 0.15 µM; classification at 100 μM IC50 threshold ([2]; PHH 48 h): false positives; classification at 50× MOS threshold ([2]; PHH 48 h): false positive; classification at 100 μM IC50 threshold ([3]; hLiMT 14 days): false positives"
CNCCCN1c2ccccc2CCc2ccccc21 [Desipramine],,,1880,1880,"FDA DILI Classification DILI severity score [5]: 3; LTKB DILI classification [5]: Ambiguous DILI concern; DILI severity category [1, 6]: 3: Low clinical DILI concern (N = 23); DILI severity category [1, 7]: 3. Low Clinical DILI Concern; DILI category [1]: 3. Low Clinical DILI Concern"
CN(C)CCCN1c2ccccc2CCc2ccccc21 [Imipramine],,,540,530,
Cc1ccc(N(CC2=NCCN2)c2cccc(O)c2)cc1 [Phentolamine],> 100,> 100,90,90,
O=P1(N(CCCl)CCCl)NCCCO1 (stereo not shown) [Cyclophosphamide],,> 2000,,,"IC50 ([2]; Homo sapiens, Hepatocyte, 48 h): > 2000 µM; Cmax ([4]; human, in vivo): 143000 nM"
N[C@@H]1CON=C1O [Cycloserine],> 10,7460,333000,333000,
CS(=O)(=O)Nc1ccc([N+](=O)[O-])cc1Oc1ccccc1 [Nimesulide],436,60.5,21100,21100,
CN1C(C(=O)Nc2nccs2)=C(O)c2ccccc2S1(=O)=O [Sudoxicam],> 100,> 100,77000,77100,
CCOC(=O)C1=C(C)NC(C)=C(C(=O)OC)C1c1cccc(Cl)c1Cl (stereo not shown) [Felodipine],> 10,> 10,30,30,
Cc1ccc(-c2cc(C(F)(F)F)nn2-c2ccc(S(N)(=O)=O)cc2)cc1 [Celocoxib],,,2540,2540,"DILI severity category [1, 6]: 2: High clinical DILI concern (N = 23); DILI severity category [1, 7]: 2. High Clinical DILI Concern; DILI category [1]: 2. High Clinical DILI Concern; IC50 [2, 12]: 155 µM; IC50 [3, 13]: 26.2 µM"
CNCCC(Oc1ccc(C(F)(F)F)cc1)c1ccccc1 (stereo not shown) [Fluoxetine],,,50,50,

SMILES,"IC50 [2, 8] [µM]","IC50 [3, 9] [µM]","Cmax [4, 10] [nM]","Cmax [4, 11] [nM]",other results
CN1CCN(C2=Nc3cc(Cl)ccc3Nc3ccccc32)CC1 [Clozapine],,,2400,2450,
COC(=O)C1=C(C)NC(C)=C(C(=O)OCCN(C)Cc2ccccc2)C1c1cccc([N+](=O)[O-])c1 (stereo not shown) [Nicardipine],,,80,80,
N[C@@H]1[C@H]2CN(c3nc4c(cc3F)c(=O)c(C(=O)O)cn4-c3ccc(F)cc3F)C[C@@H]12 [Trovafloxacin],> 125,> 125,,,
CN(C)C(=O)Oc1ccc[n+](C)c1 [Pyridostigmine],> 200,> 100,1100,1100,
N[C@@H](Cc1cc(I)c(Oc2ccc(O)c(I)c2)c(I)c1)C(=O)O [Liothyronine],,> 10,2.46,2.46,"IC50 ([2]; Homo sapiens, Hepatocyte, 48 h): > 10 µM"
CCN(CC)Cc1cc(Nc2ccnc3cc(Cl)ccc23)ccc1O [Amodiaquine],18.5,< 7.8,1910,1910,"DILI severity category [1, 6]: 2: High clinical DILI concern (N = 23); DILI severity category [1, 7]: 2. High Clinical DILI Concern; DILI category [1]: 2. High Clinical DILI Concern"
O=C(O)COc1ccc(C(=O)c2cccs2)c(Cl)c1Cl [Tienilic Acid],> 100,567,82700,82700,"DILI severity category [1, 6]: 1: Severe clinical DILI (N = 23); DILI severity category [1, 7]: 1. Severe Clinical DILI; DILI category [1]: 1. Severe Clinical DILI"
CO[C@@]12[C@H](COC(N)=O)C3=C(C(=O)C(C)=C(N)C3=O)N1C[C@@H]1N[C@@H]12 [Mitomycin C],,< 0.8,7100,7100,"IC50 ([2]; Homo sapiens, Hepatocyte, 48 h): 14.8 µM"
CN1[C@@H]2CC[C@H]1C[C@@H](OC(=O)[C@H](CO)c1ccccc1)C2 [Hyoscyamine (Daturine)],,,,,"IC50 [2, 12]: > 10 µM; IC50 [3, 13]: > 10 µM"
CCN(CC)CC#CCOC(=O)C(O)(c1ccccc1)C1CCCCC1 (stereo not shown) [Oxybutynin],,,22,22.4,
CCCC(CCC)C(=O)O [Valproic acid],> 100,> 100,693000,693000,
C[C@H]1COc2c(N3CCN(C)CC3)c(F)cc3c(=O)c(C(=O)O)cn1c23 [Levofloxacin],> 500,> 320,15800,15800,
CCN1C(=O)NC(c2ccccc2)C1=O (stereo not shown) [Ethotion],> 1250,> 150,367000,367000,
OC(CCN1CCCC1)(c1ccccc1)C1CCCCC1 (stereo not shown) [Procyclidine],97.9,117,2190,2190,classification at 50× MOS threshold ([2]; PHH 48 h): false positive
CC/C(=C(\c1ccccc1)c1ccc(OCCN(C)C)cc1)c1ccccc1 [Tamoxifen],,,400,400,
Nc1cc(N2CCCCC2)nc(N)[n+]1[O-] [Minoxidil],> 100,> 100,1200,1190,
